Source: PMC9291521 (Frontiers in Chemistry, 2022)
Like-named read-outs stand apart in the source and are kept apart here. Residues, ends and D or L forms follow the SMILES beside them. *: point of attachment. Cbz = O=C(OCc1ccccc1)*

Assays:
SARS-CoV-2 3CL protease = SARS-CoV-2 3CL protease (Severe acute respiratory syndrome coronavirus 2, UniProt P0DTD1); test: Kinetic assay of SARS-CoV-2 3CL-PR inhibition (FRET substrate); type: biochemical; conditions: after 30-min incubation; pH 7.2; read-out: Ki* 3CLpro
cruzain = conditions: pH 7.5; ref Li et al., 2021; cited from earlier work
human cathepsin L [1] = target: T1, human cathepsin L (Homo sapiens, UniProt P07711); test: biochemical
T1 sequence (P07711 114-333): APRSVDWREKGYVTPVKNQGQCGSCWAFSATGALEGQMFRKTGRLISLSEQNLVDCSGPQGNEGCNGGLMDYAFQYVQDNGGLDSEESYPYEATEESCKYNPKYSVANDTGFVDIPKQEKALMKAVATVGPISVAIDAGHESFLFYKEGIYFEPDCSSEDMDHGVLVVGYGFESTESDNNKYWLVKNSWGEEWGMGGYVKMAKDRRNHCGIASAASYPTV
Description: (§1) Recombinant proteases were obtained from the following vendors: recombinant human cathepsin L (Millipore Sigma, Athens Research and Technology, Inc.), and human liver cathepsin B (Millipore Sigma), which were used without further purification. […] These samples were then diluted into the same buffer to concentrations of ∼100 nM, and these dilutions were stored at 4°C and used daily until depletion.
(§2) For assays of cathepsin L and B, inhibitors were evaluated in 0.25-ml reaction mixtures containing a buffer of sodium acetate (pH 5.5), 1 mM CHAPS, 1 mM Na2EDTA, and 5 mM DTT at 25°C. The fluorogenic substrate Cbz-Phe-Arg-7-amino-4-methyl-coumarin (Z-FR-AMC) was dissolved in 100% DMSO, as were all inhibitors and aliquots of both substrates, and inhibitors were added to the reaction mixtures with final concentrations of DMSO of 10% (v/v). […] Formation of the fluorescent product AMC was monitored over 30–60-min time courses for reaction mixtures in 96-well black microplates (Greiner). Rates of peptidolysis of the dipeptide-AMC substrate(s) were measured on either a SpectraMax M2 (Molecular Devices) or a Synergy Mx (Biotek, Wisnooki, VT) microplate reader which measured the formation of fluorescence using an excitation wavelength of λex = 360 nm, with detection of emission at λem = 460 nm at ≥8-s intervals. Control samples excluded substrate. The measured relative fluorescence units (RFUs) of generated AMC were converted to reaction rates of μM/s by use of a standard curve of known AMC concentrations obtained for both plate readers.

human cathepsin L [2] = target: T1, human cathepsin L; conditions: for fold more potent for human cathepsin L than for cruzain (Ki*): hCatL vs cruzain; for Ki: read-out: Ki* hCatL, after 30-min incubation, pH 5.5, fit of vs/v0 to Eq. 5
Description: as §1, §2

[3] = test system: SARS-CoV-2-infected A549/ACE2 cells; test: microbe, parasite or virus in culture; type: cell-based
[4] = test system: SARS-CoV-2-infected Vero E6 cells; test: Micro-neutralization assay, virus-induced cytopathic effect in Vero E6 cells; type: cell-based
human cathepsin B = target: T2, human cathepsin B (Homo sapiens, UniProt P07858); test: Kinetic assay of human cathepsin B inhibition (Z-FR-AMC peptidolysis); type: biochemical; conditions: after 30-min incubation; pH 5.5; read-out: Ki* hCatB
T2 construct: purchased Millipore Sigma; host or cells: human liver (so in the source)

[5] = test system: SARS-CoV-2-infected A549/ACE2 cells; conditions: read-out: Anti-CoV-2 EC50 A549/ACE2 Cells, cited from earlier work
[6] = test system: SARS-CoV-2-infected Vero E6 cells; conditions: cited from earlier work
[7] = Ki (initial EI complex), fit of vi/v0 vs. [I] to Eq. 4
[8] = Ki* hCatL, after 30-min incubation, pH 5.5, fit of vs/v0 to Eq. 5
[9] = Severe acute respiratory syndrome coronavirus 2, A549-ACE2, 96 h, read-out: Anti-CoV-2 EC50 A549/ACE2 Cells
[10] = Severe acute respiratory syndrome coronavirus 2, Vero C1008, 72 h, prevention of CPE, 3 days, read-out: Anti-CoV-2 EC50 Vero E6 Cells
[11] = Severe acute respiratory syndrome coronavirus 2, A549-ACE2, 96 h, prevention of CPE, 4 days, read-out: Anti-CoV-2 EC50 A549/ACE2 Cells
[12] = Severe acute respiratory syndrome coronavirus 2, A549-ACE2, read-out: EC50 A549/ACE2 cells
[13] = previously reported, ref Li et al., 2021

For `O=C(N[C@@H](Cc1ccccc1)C(=O)N[C@H]1Cc2ccccc2OC1O)OCc1ccccc1` (stereo partly drawn) [Compound 2, Cbz-Phe-o-Tyr-CHO], the Ki (SARS-CoV-2 3CL protease) is given as over 10000 nM, the Ki (cruzain) is given as 49 ± 2 nM and the Ki (human cathepsin L [1]; [7]) is given as 54 ± 6 nM. For the same compound, the Ki (human cathepsin L [1]; [8]) was 12.6 ± 0.4 nM, the Ki (human cathepsin L [1]; k4Ki/k3 ∼ Ki*, calculated from the Eq. 3 parameters) was about 200 nM and the “fold faster k4 than aldehyde 1” value (human cathepsin L [2]; conversion of EI* to EI) was about 5 fold. For the same compound, the “fold more potent for human cathepsin L than for cruzain (Ki*)” value (human cathepsin L [2]) was 3.9 fold, the “k4 (reversion of EI* to EI)” value (human cathepsin L [2]; intercept of kobs vs. [I], fit to Eq. 3) was 0.0016 ± 0.0002 s⁻¹ and the “fold less potent inhibitor of cathepsin L than 1 (Ki*)” value (human cathepsin L [2]; relative to aldehyde 1) was 100 fold. It also gave an EC50 [3, 9] of over 20000 nM, an EC50 [4, 10] of 10000 ± 5000 nM and a Ki (human cathepsin B) of 4500 nM.

`CC(=O)OC1Oc2ccccc2CC1NC(=O)C(Cc1ccccc1)NC(=O)N1CCN(C)CC1` (stereo not drawn) [Compound 10] showed an EC50 [3, 11] of 310 nM, an EC50 [3, 12] of 312 nM and an EC50 [4, 10] of 2500 nM.

In the case of `CN1CCN(C(=O)NC(Cc2ccccc2)C(=O)NC2Cc3ccccc3OC2O)CC1` (stereo not drawn) [Compound 8, NMe-Pip-Phe-o-Tyr-CHO], the Ki (SARS-CoV-2 3CL protease) is given as over 10000 nM, the Ki (cruzain) is given as 47 ± 2 nM and the Ki (human cathepsin L [1]; [7]) is given as 22 ± 1 nM. The Ki (human cathepsin L [1]; [8]) was 9 ± 0.4 nM, the “anti-viral effect in infected A549/ACE2 cells” value ([3]; in words) was “no anti-viral effect” and the EC50 [4, 10] was 9000 ± 2000 nM. For the same compound, the Ki (human cathepsin B) was 1270 ± 70 nM.

For `COC(=O)c1ccc2c(c1)C[C@H](NC(=O)[C@H](Cc1ccccc1)NC(=O)OCc1ccccc1)C(O)O2` (stereo partly drawn) [Compound 7], the Ki (SARS-CoV-2 3CL protease) is given as over 10000 nM, the Ki (cruzain) is given as 18 ± 0.5 nM and the “fold improved potency over 2” value (human cathepsin L [2]; cathepsin L) is given as 2.6 fold. For the same compound, the Ki (human cathepsin L [2]) was 4.8 ± 0.2 nM, the EC50 [4, 10] was 2500 nM and the Ki (human cathepsin B) was 670 ± 30 nM.

For `Cc1ccc2c(c1)C[C@H](NC(=O)[C@H](Cc1ccccc1)NC(=O)OCc1ccccc1)C(O)O2` (stereo partly drawn) [Compound 4], the Ki (SARS-CoV-2 3CL protease) is given as over 10000 nM, the Ki (cruzain) is given as 103 ± 5 nM and the “fold increase in Ki* compared to 2” value (human cathepsin L [2]; cathepsin L) is given as 2 fold. For the same compound, the Ki (human cathepsin L [2]) was 26 ± 0.9 nM and the Ki (human cathepsin B) was 6100 nM.

In the case of `CN1CCN(C(=O)N[C@@H](Cc2ccccc2)C(=O)N[C@H](/C=C/S(=O)(=O)c2ccccc2)CCc2ccccc2)CC1` [Compound K777], the EC50 ([4]; Severe acute respiratory syndrome coronavirus 2, Vero C1008, 72 h, read-out: Anti-CoV-2 EC50 Vero E6 Cells) is listed as 150 nM, the EC50 ([4]; Severe acute respiratory syndrome coronavirus 2, Vero C1008, read-out: EC50 Vero E6 cells) is listed as 156 nM and the EC50 ([5]; ref Mellott et al. (2021)) is listed as under 78 nM. For the same compound, the EC50 ([6]; previously found, ref Mellott et al., 2021, read-out: EC50 Vero E6 cells) was 625 nM and the EC50 ([6]; ref Mellott et al. (2021), read-out: Anti-CoV-2 EC50 Vero E6 Cells) was 620 nM.

In the case of `O=C[C@H](Cc1ccccc1)NC(=O)[C@H](Cc1ccccc1)NC(=O)OCc1ccccc1` [Compound 1, Cbz-Phe-Phe-CHO] (Cbz-Phe-Phe-aldehyde), the Ki (SARS-CoV-2 3CL protease) is given as over 10000 nM, the Ki (cruzain) is given as 0.44 ± 0.02 nM and the Ki (human cathepsin L [1]; [7]) is given as 0.18 ± 0.22 nM. The Ki (human cathepsin L [1]; [8]) was 0.14 ± 0.01 nM, the “fold more potent for human cathepsin L than for cruzain (Ki*)” value (human cathepsin L [2]) was 3 fold and the EC50 [3, 9] was over 20000 nM. The EC50 [4, 10] was 470 nM and the EC50 ([4]; Severe acute respiratory syndrome coronavirus 2, Vero C1008, repeat of the experiment with a different sample of 1, read-out: Anti-CoV-2 EC50 Vero E6 Cells) was 7500 nM.

Work on `CCC(=O)OC1Oc2ccccc2CC1NC(=O)C(Cc1ccccc1)NC(=O)N1CCN(C)CC1` (stereo not drawn) [Compound 11] yielded an EC50 [3, 11] of 620 nM, an EC50 [3, 12] of 625 nM and an EC50 [4, 10] of 2500 nM.

For `CC(C)C(=O)OC1Oc2ccccc2CC1NC(=O)C(Cc1ccccc1)NC(=O)N1CCN(C)CC1` (stereo not drawn) [Compound 12], the EC50 [3, 11] was 310 nM, the EC50 [3, 12] was 156 nM and the EC50 [4, 10] was 3750 nM. For the same compound, the EC50 ([4]; prevention of CPE, 3 days, read-out: Anti-CoV-2 EC50 Vero E6 Cells) was 4000 nM.

For `CC(C)[C@H](NC(=O)OCc1ccccc1)C(=O)N[C@@H](CC1CCCCC1)C(=O)N[C@H]1Cc2cccnc2OC1O` (stereo partly drawn) [Compound 9], the Ki (SARS-CoV-2 3CL protease) is given as 9 ± 2 nM, the Ki (human cathepsin L [1]; [8]) is given as 22 ± 4 nM and the EC50 [5, 13] is given as 3750 nM. The “effect in SARS-CoV-2-infected Vero E6 cells” value [6, 13] was “no effect”.

For `CC(C)(C)[C@H](NC(=O)C(F)(F)F)C(=O)N1C[C@H]2[C@@H]([C@H]1C(=O)N[C@H](C#N)C[C@@H]1CCNC1=O)C2(C)C` [PF-07321332, reference compound], the EC50 [3, 9] is listed as 470 nM, the EC50 [4, 10] is listed as over 20000 nM and the EC50 ([5]; ref Owen et al. (2021)) is listed as 77 nM. The EC50 ([6]; ref Owen et al. (2021), read-out: Anti-CoV-2 EC50 Vero E6 Cells) was 74 nM.

In the case of `O=C(N[C@@H](Cc1ccccc1)C(=O)N[C@H]1Cc2cc(F)ccc2OC1O)OCc1ccccc1` (stereo partly drawn) [Compound 6], the Ki (SARS-CoV-2 3CL protease) is listed as over 10000 nM, the Ki (cruzain) is listed as 48 ± 2 nM and the Ki (human cathepsin L [2]) is listed as 10.3 ± 0.5 nM. The EC50 [4, 10] was 4000 nM and the Ki (human cathepsin B) was 2300 nM.

For `COc1ccc2c(c1)C[C@H](NC(=O)[C@H](Cc1ccccc1)NC(=O)OCc1ccccc1)C(O)O2` (stereo partly drawn) [Compound 3], the Ki (SARS-CoV-2 3CL protease) is given as over 10000 nM, the Ki (cruzain) is given as 350 ± 30 nM and the “fold increase in Ki* compared to 2” value (human cathepsin L [2]; cathepsin L) is given as 1.4 fold. The Ki (human cathepsin L [2]) was 17 ± 0.9 nM and the Ki (human cathepsin B) was 5500 nM.

For `O=C(N[C@@H](Cc1ccccc1)C(=O)N[C@H]1Cc2cc(Cl)ccc2OC1O)OCc1ccccc1` (stereo partly drawn) [Compound 5], the Ki (SARS-CoV-2 3CL protease) is listed as over 10000 nM, the Ki (cruzain) is listed as 70 ± 10 nM and the Ki (human cathepsin L [2]) is listed as 12.1 ± 0.3 nM. The Ki (human cathepsin B) was 1400 ± 100 nM.
